ChEMBL document CHEMBL1126331, “Nor-mefloquine: Stereospecific synthesis and biological properties” (1992)

What was measured:
[1] = system: Mus musculus; experiment: Compound was evaluated in vivo against Plasmodium berghei in mice (Mus musculus) after oral administration; type: functional
[2] = system: Rattus norvegicus; experiment: Percent decrease in blood pressure in conscious hypertensive rats, at a dose of 100 mg; type: functional

| Structure (SMILES) | ED50 [1] [mg/kg] | Decrease [2] [%] |
| --- | --- | --- |
| Cl.O[C@@H](c1cc(C(F)(F)F)nc2c(C(F)(F)F)cccc12)[C@H]1CCCCN1 [MEFLOQUINE HYDROCHLORIDE] | 1.8 | – |
| Cl.O[C@H](c1cc(C(F)(F)F)nc2c(C(F)(F)F)cccc12)[C@@H]1CCCN1 (single isomer, unassigned) | 1.8 | 15 |
